One data set concerns MES-SA cells. The data set can be described thus: MTT cell viability assay, paclitaxel response. It is filed as cell-based, human. To be noted: after transfection with miR-135a mimic, 100 nM paclitaxel. The method, then:
(§1) The paclitaxel-resistant cell lines MES-SA^DX5 and A549^TR were transfected with a scrambled non-targeting miRNA (control) and an miR-135a mimic (mimic), respectively. Cells were subsequently treated with 100 nM paclitaxel and cell viability was assessed using the MTT assay (FIGS. 2A, 2B). The percentage of apoptotic cells was assessed by Annexin V-staining and FACS analysis (FIGS. 2C, 2D). Values are presented as percent cell survival in paclitaxel-treated cells relative to untreated cells. *P<0.05, **P<0.001 as determined by Wilcoxon's rank sum test.
FIGS. 4A-4E are a series of micrographs and line graphs showing that miR-135a-mediated APC suppression contributes to paclitaxel resistance. MES-SA and A549 cells were mock-transfected (mock), transfected with a scrambled siRNA (siControl) or with siRNA directed against APC (siAPC). […] Transfected A549 (FIG. 4B) and MES-SA (FIG. 4C) cells were treated with paclitaxel and viability was assessed using the MTT assay. […] (FIG. 4E) Both A549-shCON and -shAPC cells were treated with paclitaxel and cell viability was measured using the MTT assay. […]
(§2) Cell growth inhibition was determined by a 3-(4,5-dimethylthiazol-2-yl)-2,5-diphenyltetrazolium (MTT) bromide assay. […] Absorbance was determined using a 96-well SpectraMax plate reader (Molecular Devices, Sunnyvale, Calif.) at 560 nm and 650 nm (background). […]
A general note: Tetrazolium dyes change colour on reduction, which living cells bring about.

In a further data set the test system is A549 cells. The data set can be described thus: Annexin V staining and FACS analysis of paclitaxel-induced apoptosis. The settings on record: transfection with miR-135a mimic, 100 nM paclitaxel; P<0.001. The format is cell-based, human. The method, then: as §1
Annexin V/7-amino-actinomycin D labeling was performed according to the manufacturer's instructions (BD Pharmingen™, San Diego, Calif., USA, 559 763) and samples were analyzed by flow cytometry. Briefly, cells were treated for 48-72 h with either vehicle or 100 nM paclitaxel. Cells were trypsinized and washed with phosphate-buffered saline before resuspending in assay binding buffer. Annexin V and 7-amino-actinomycin labeling was performed at room temperature for 15 min before analysis by flow cytometry (BD FACScan™, San Jose, Calif., USA).
(In flow cytometry, cells or beads pass a laser one at a time.)

In another data set the test system is APC 3′-UTR. The data set can be described thus: Luciferase reporter fused to APC 3'-UTR. It is filed as cell-based, human. The settings on record: 30 nM miR-135a mimic. The source says:
FIGS. 3A-3E are a series of bar graphs showing that miR-135a modulates APC expression in paclitaxel-resistant cancer cells. MES-SA (FIG. 3A) or A549 (FIG. 3B) cells were transfected with a luciferase reporter construct fused to APC 3′-UTR or a control luciferase reporter vector with a random 3′-UTR (random UTR). Subsequently, cells were cotransfected with either an miR-135a mimic or a non-targeting miRNA control (control miRNA). Values are shown as the percent of luciferase expression compared with the control. *P<0.01 as determined by Wilcoxon's rank sum test. FIG. 3C: Endogenous APC mRNA expression was quantified by RT-PCR analysis in A549, A549^TR, MES-SA and MES-SA^DX5 cells. Bars represent mean and s.e.m. from duplicate experiments. NS: not significant, **P<0.001 as determined by Wilcoxon's rank sum test. In addition, APC protein expression was examined by western blotting (bottom panel). […]
Double-stranded RNA oligos representing a mature sequence that mimics endogenous miR-135a, anti-miR-135a designed to inhibit endogenous miR-135a, and anti-miR negative control were all obtained from Ambion™ and were transfected into cell lines at ˜50% confluence at 30 nM concentration with siLentFect (Bio-Rad™). […] The next day, luciferase activity was measured using the Dual-Glo® Luciferase assay system (Promega™, Madison, Wis.). […]

The next data set relates to T824.1 cell line. The data set can be described thus: MTT cell viability assay on in vivo established paclitaxel-sensitive cell line. It is filed as cell-based. The settings on record: paclitaxel-sensitive cells transfected with miR-135a mimic. The method, then: (FIG. 7A). The parental A549 cells, a cell line that became refractory during in vivo treatment with paclitaxel (T20.2 round 1) and the same cell line established after yet another round of in vivo paclitaxel treatment (T20.2 reinjection) were treated with paclitaxel and cell viability was assessed using the MTT assay. Represented are average LC50±s.e.m. determined by MTT assay for parental A549 cells (white boxes), **P<0.001, *P<0.05 as determined by Wilcoxon's rank sum test for T20.2 round 1 cells (hatched boxes) and for T20.2 re-injection cells (filled boxes). (FIG. 7B) The expression of miR-135a was examined in these cells by qRT-PCR. *P<0.05 as determined by Wilcoxon's rank sum test. (FIG. 7C) The expression of miR-135a was examined in the cell lines established in vivo. The correlation between paclitaxel response and miR-135a expression was calculated using the Spearman's rank test. […] Subsequently, cells were treated with the indicated concentrations of paclitaxel and cell viability was assessed using the MTT assay. […]
as §2

“miR-135a mimic: double-stranded RNA oligos representing a mature sequence that mimics endogenous miR-135a, from Ambion (sense GTATTGGGCGCCTGGTCACC; antisense CGGGAAGATGGTGATGG; listed as DNA, chemistry not given here)” yielded a cell survival in the data set with MES-SA cells of 43.6%. The “paclitaxel-induced apoptosis (annexin-positive cells)” value in the data set on A549 cells was “decreased paclitaxel-induced apoptosis”. Further, the “targeting of APC 3' untranslated region (luciferase expression)” value is given as “targeted the 3′ untranslated region of APC” with APC 3′-UTR (A549 cells) and “targeted the 3′ untranslated region of APC” in the data set on APC 3′-UTR (MES-SA cells, P=0.029). Also, the paclitaxel-induced cytotoxicity entry in the data set on T824.1 cell line is on record as “suppressed paclitaxel-induced cytotoxicity”.

Source of the values: patent US9687467B2, “Diagnosis and treatment of taxane-resistant cancers” (Children's Medical Center Corporation, priority 2011, dated 2017).
